Earlier results as cited in patent publication US20080138409A1, “OLANZAPINE PHARMACEUTICAL COMPOSITION” (priority 2006, published 2008).

Conditions: pH 6.8; free base

Cc1cc2c(s1)Nc1ccccc1N=C2N1CCN(C)CC1 [Olanzapine]
solubility: about 0.02 mg/ml
